Source: patent US5622948A, “Pyrrole pyridazine and pyridazinone anti-inflammatory agents” (Syntex (U.S.A.) Inc., priority 1994, dated 1997)
pIC50: −log10 of the molar value. Values joined by “and” are separate entries in the source; they are usually repeats but may differ in a detail not shown here. Equal entries are not always repeated. “Also recorded” adds a separate entry of the source.

Assays:
COX II [1] = biological target: T1, COX II (Homo sapiens, UniProt P35354); assay: TxB2 production in human whole blood activated with lipopolysaccharide (COX II); format: cell-based; conditions: 5 hr incubation with compound and 10 μg/ml LPS; RIA determination of TxB2; read-out: COX II IC50, inhibition of TxB2 production
T1 sequence (P35354 18-604): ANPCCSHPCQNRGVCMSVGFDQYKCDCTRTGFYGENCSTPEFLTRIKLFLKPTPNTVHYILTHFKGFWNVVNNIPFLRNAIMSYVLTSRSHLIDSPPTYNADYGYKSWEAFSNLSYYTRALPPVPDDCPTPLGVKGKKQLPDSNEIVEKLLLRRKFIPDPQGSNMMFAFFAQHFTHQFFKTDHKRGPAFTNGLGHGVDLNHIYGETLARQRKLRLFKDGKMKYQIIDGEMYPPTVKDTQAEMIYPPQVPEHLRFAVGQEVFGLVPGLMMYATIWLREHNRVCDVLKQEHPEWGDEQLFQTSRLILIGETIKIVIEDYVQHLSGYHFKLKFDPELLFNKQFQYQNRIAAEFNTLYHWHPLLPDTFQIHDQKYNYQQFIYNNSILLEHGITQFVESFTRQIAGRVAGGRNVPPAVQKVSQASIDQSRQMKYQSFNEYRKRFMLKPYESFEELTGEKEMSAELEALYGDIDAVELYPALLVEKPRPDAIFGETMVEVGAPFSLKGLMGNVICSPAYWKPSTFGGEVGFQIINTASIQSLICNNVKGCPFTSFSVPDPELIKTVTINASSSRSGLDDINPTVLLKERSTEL

[2] = tested on: phenylquinone-induced writhing; assay: Phenylquinone-induced Mouse Writhing Assay; format: in vivo; conditions: 20 or 60 minutes prior to phenylquinone
Procedure: Analgetic activity is determined by the Phenylquinone-induced Mouse Writhing Assay, Hendershot, et al., J. Pharmacol. Exp. Ther., 125:237-240 (1959). This assay is one of several acute assays which have been used to assess the analgesic activity of NSAIDs. At the appropriate time after test material administration, phenylquinone is injected intraperitoneally to mice, inducing a series of characteristic "writhing" responses, which are counted between 10 and 20 minutes after phenylquinone injection.
In this assay, Compound (16), suspended in SSV, was tested over the dose range of 1-100 mg/kg administered 20 or 60 minutes prior to phenylquinone challenge.

[3] = tested on: adjuvant-induced arthritis pain; assay: adjuvant-induced arthritis pain model in the rat; format: in vivo; conditions: preliminary test at 0.1, 1.0, 10 and 30 mg/kg, read-out: doses at which significant and prolonged analgesia is obtained
Procedure: Compound (16) was also evaluated using an adjuvant-induced arthritis pain model in the rat, in which pain is assessed by eliciting a vocal response upon squeezing or flexing an inflamed ankle joint.

COX II [4] = biological target: T1, COX II; assay: radiometric assay, COX II inhibition (human recombinant, baculovirus expressed, partially purified); format: biochemical; design: A 1.8 Kb DNA fragment containing the coding region of human COX II was generated by PCR; made in house; host or cells: Sf9 insect cells, baculovirus
Summary of the method: (§1)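 Partially purified baculovirus-expressed human enzyme preincubated with compound, 2 mM phenol (5 min) then 1 μM hematin (5 min). Reaction in Tris-HCl pH 7.9 with 20 μM 1-[14C]arachidonate for 45 s at room temperature, acid-stopped; oxygenated products isolated on Sep-Pak and counted by scintillation.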

COX II [5] = biological target: T1, COX II; assay: PGE2 production in human foreskin fibroblasts stimulated with IL-1 and PMA; format: cell-based; design: A 1.8 Kb DNA fragment containing the coding region of human COX II was generated by PCR; made in house; host or cells: Sf9 insect cells, baculovirus; conditions: read-out: COX II IC50, inhibition of PGE2 production
Procedure: A summary of activities of Compound (16) against COX I and COX II in cell-free enzyme preparations and whole cells is presented in Table 1. The following abbreviations are used: AA is arachidonic acid, IL-1 is interleukin 1, PMA is phorbol myristate acetate, A23187 is a calcium ionophore (Sigma), BSA is bovine serum albumin and LPS is a lipopolysaccharide (Sigma).
Human foreskin fibroblasts
30 min incubation with Compound (16)
16 hr admulation with IL-1 and PMA
washing, transfer to fresh media
EIA determination of PGE2
16 hr stimulation with IL-1 and PMA
RIA determination of PGE2

COX I [6] = biological target: T2, COX I (Homo sapiens, UniProt P23219); assay: radiometric assay, COX I inhibition (human recombinant, baculovirus expressed, partially purified); format: biochemical; design: A 2 Kb fragment containing the coding region of COX I; made in house; host or cells: Sf9 insect cells, baculovirus (cDNA from Oxford Biomedical Research); conditions: 10 min incubation with compound; 45 sec incubation with 20 μM AA; separation of radioactive products; read-out: COX I IC50
Summary of the method: as §1

COX I [7] = biological target: T2, COX I; assay: as above; format: biochemical; design: A 2 Kb fragment containing the coding region of COX I; made in house; host or cells: Sf9 insect cells, baculovirus (cDNA from Oxford Biomedical Research); conditions: very low substrate concentration

T2 sequence (P23219 24-599): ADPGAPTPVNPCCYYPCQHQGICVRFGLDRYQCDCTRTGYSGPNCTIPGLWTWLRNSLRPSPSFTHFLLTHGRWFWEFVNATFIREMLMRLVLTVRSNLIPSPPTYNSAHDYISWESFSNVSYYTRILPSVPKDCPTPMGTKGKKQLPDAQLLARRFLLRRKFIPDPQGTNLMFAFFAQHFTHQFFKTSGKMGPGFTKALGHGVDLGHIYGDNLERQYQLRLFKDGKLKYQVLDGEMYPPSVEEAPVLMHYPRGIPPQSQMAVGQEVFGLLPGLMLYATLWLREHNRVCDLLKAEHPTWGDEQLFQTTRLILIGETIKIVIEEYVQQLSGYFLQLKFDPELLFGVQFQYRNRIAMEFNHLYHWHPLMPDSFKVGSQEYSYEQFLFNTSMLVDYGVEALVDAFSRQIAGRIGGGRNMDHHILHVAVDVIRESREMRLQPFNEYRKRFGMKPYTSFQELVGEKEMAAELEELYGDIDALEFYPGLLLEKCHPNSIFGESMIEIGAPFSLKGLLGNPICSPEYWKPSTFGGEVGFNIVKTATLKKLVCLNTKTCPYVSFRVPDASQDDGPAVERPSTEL

## Cc1cc(Cc2ccc(=O)[nH]n2)n(C)c1C(=O)c1ccc(Cl)cc1 [Compound 16, 6-[1,4-dimethyl-5-(4chloro-benzoyl)-1H-pyrrol-2-ylmethyl]-2H-pyridazin-3-one]
COX II [1]
  pIC50: 5.33 and 5.34
[2]; 100 mg/kg, in SSV
  inhibition of phenylquinone-induced writhing: 100%
[2]; Mus musculus, 1-100 mg/kg
  ED50: ~10 mg/kg
[3]
  minimal effective dose: ≥ 10 mg/kg
COX II [4]
  type of inhibition of COX II: potent, time-dependent, reversible inhibition
COX II [4]; 10 min incubation with compound, 45 sec incubation with 20 μM AA, separation of radioactive products, read-out: COX II IC50
  pIC50: 6.05 to 6.24 and 6.24 and 6.05 and 6.19
COX II [4]; COX II over COX I
  selectivity for COX II: significantly more selective for COX II than currently available NSAIDs; also recorded: highly selective for COX II
COX II [5]; 30 min incubation, 10 min activation, 5 μM A23187, RIA determination of PGE2
  pIC50: 6.92 and 6.77 and 6.85
COX II [5]; 30 min incubation; a) 10 min activation with 5 μM A23187, EIA determination of PGE2
  pIC50: ≥ 7.00
COX II [5]; 30 min incubation; b) 10 min activation with 20 μM AA + FA-free BSA, EIA determination of PGE2
  pIC50: ~5.57
COX I [6]
  pIC50: < 3.00
COX I [7]
  type of inhibition of COX I: weak, competitive, non-time dependent inhibition
